Results reported in patent publication US5177112A, “Substituted 2-aminotetralins” (Whitby Research, Inc., priority 1991, dated 1993).
Where two headings read alike, the source gives them in different places. Each block holds one compound with its values, some of them ahead of it.

What was measured:
intraocular pressure [1] = settings: rabbits; cited from earlier work
intraocular pressure [2] = settings: monkeys; cited from earlier work
D1 receptors = biological target: T1, D1 receptors (Bos taurus, UniProt Q95136); experiment: D1 receptor specific binding, [3H]-SCH23390; parameters: species or system bovine
T1 construct: The caudate nuclei were dissected out and homogenized in Buffer A; from tissue; host or cells: bovine caudate nuclei membranes (brains from a local slaughterhouse)
Procedure: (§1) Dopamine receptor assays: Specific binding studies to test the affinity of the compounds for D1, D2 and α2 receptors were conducted using bovine caudate nuclei prepared as follows:
(§2) Bovine brains were obtained fresh from a local slaughterhouse. The caudate nuclei were dissected out and homogenized in Buffer A (50 mM Tris; 1 mM Na2 -EDTA; 5 mM KCl; 1 mM MgCl2; 2 mM CaCl2; pH 7.4) using a Brinkman Polytron. The homogenate was centrifuged at 40,000×g for 20 minutes and washed once. The pellett was resuspended in Buffer A, incubated at 37° C. for 15 minutes, then centrifuged. The pellet was washed once more, resuspended to a protein concentration of 5-10 mg/ml in Buffer A and frozen at -70° C. until used.
(§3) The following tritiated drugs were used as radioligands in the binding studies:
(§4) [^3 H]-spiperone, [^3 H]-SCH22390, and [^3 H]-ketanserin were obtained from New England Nuclear, Boston, Me.
(§5) The radioligands were incubated with various concentrations of competing drug and the appropriate membrane source for 75 minutes at room temperature for D2 receptors, 15 minutes at 37° C. for D1 receptors, or 30 minutes at room temperature for α2 receptors. Specific binding was defined using 1 μM butaclamol (D2), 1 μM SCH23390 (D1), or 1 μM yohimbine (α2). In addition the D2 assays contained 30 nM ketaserin in order to block the binding of ^3 H-spiperone to 5HT2 receptors. The assays were terminated by filtration using a 24-port Brandell cell harvester over filters that had been previously soaked in 0.1% polyethyleneimine, and the filters were washed three times by filtration of cold buffer. […] The results are presented as Ki values if the data were best fitted to a one-site model, or as KH and KL values if a two-site model produced the better fit.

D2 receptors = biological target: T2, D2 receptors (Bos taurus, UniProt P20288); experiment: D2 receptor specific binding, [3H]-Spiperone; parameters: species or system bovine; settings: for Ki: bovine caudate nuclei, [3H]-Spiperone, 30 nM ketanserin, 75 minutes at room temperature; for increase in selectivity for D2 receptors: compared to the thienyl compound
T2 construct: The caudate nuclei were dissected out and homogenized in Buffer A; from tissue; host or cells: bovine caudate nuclei membranes (brains from a local slaughterhouse)
Procedure: as §1, §2, §3
[^3 H]-Spiperone 21-24 Ci/mmol for D2 receptors
as §4, §5

α2-adrenergic receptors = biological target: T3, α2-adrenergic receptors (Rattus norvegicus, UniProt P22909); experiment: α2-adrenergic receptor specific binding, [3H]-Para aminoclonidine
T3 construct: from tissue; host or cells: cerebral cortex membranes of male Sprague Dawley rats
T3 sequence (P22909 1-465): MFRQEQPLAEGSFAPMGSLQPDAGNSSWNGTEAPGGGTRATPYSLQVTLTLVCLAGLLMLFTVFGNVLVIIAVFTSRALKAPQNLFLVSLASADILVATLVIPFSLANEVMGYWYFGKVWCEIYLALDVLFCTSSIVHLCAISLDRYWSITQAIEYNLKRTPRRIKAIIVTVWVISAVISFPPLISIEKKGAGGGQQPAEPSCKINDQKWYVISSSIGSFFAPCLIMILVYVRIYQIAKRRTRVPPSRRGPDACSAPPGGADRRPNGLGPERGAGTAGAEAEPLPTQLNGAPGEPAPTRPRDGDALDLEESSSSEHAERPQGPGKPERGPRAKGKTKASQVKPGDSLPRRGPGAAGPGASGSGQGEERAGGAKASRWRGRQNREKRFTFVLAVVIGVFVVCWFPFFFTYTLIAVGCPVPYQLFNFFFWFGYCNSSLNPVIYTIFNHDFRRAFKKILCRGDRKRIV
Procedure: as §1
α2-adrenergic receptors assays were conducted using the rat cerebral cortex prepared as follows:
Male Sprague Dawley rats were killed by decapitation and the brains removed. The cerebral cortices were homogenized in 50 mM Tris; 2 mM MgCl2 (pH 7.4), and centrifuged at 40,000×g for 10 minutes. The pellet was washed once, resuspended in Tris/MgCl2 and incubated with 8 units/ml adenosine deaminase at 37° C. for 30 minutes. The homogenate was centrifuged, washed once, resuspended to a protein concentration of 5-10 mg/ml and frozen at -70° C. until use.
as §3
[^3 H]-Para aminoclonidine 48-52 Ci/mmol for α2 -adrenergic receptors.
[^3 H]-paraaminoclonidine was obtained from Amersham, Arlington Heights, Ill. Yohimbine was obtained from Sigma Chemical Co., St. Louis, Mo.
as §5

ocular function = settings: in vivo; cited from earlier work
intraocular pressure [3] = settings: man; eyedrops; cited from earlier work
D-2 dopamine receptor [4] = biological target: T4, D-2 dopamine receptor (Bos taurus, UniProt P20288); settings: stated for contrast, no test data given; cited from earlier work
D-2 dopamine receptor [5] = biological target: T4, D-2 dopamine receptor; experiment: displacement of specific D-2 dopamine receptor binding of tritiated racemic 2-(N-propyl-N-2-thienylethylamino)-5-hydroxytetralin; parameters: homogenates of calf brain corpus striatum; from tissue; host or cells: calf brain corpus striatum homogenate; species or system calf
Procedure: The pharmacological activity of the product of Example 2 was determined by examining its ability to displace the specific D-2 dopamine receptor binding of a tritium-containing racemic mixture of 2-(N-propyl-N-2-thienylethylamino)-5-hydroxytetralin to homogenates of calf brain corpus striatum.

D-1 dopamine receptor = biological target: T5, D-1 dopamine receptor (Bos taurus, UniProt Q95136); experiment: displacement of tritium labeled SCH 23390 at the D-1 dopamine receptor, striatum membranes; format: binding; settings: bovine brain striatum membranes
T5 construct: membranes isolated from the striatum of bovine brain; from tissue; host or cells: bovine brain striatum membranes
Procedure: The activity at the D-1 dopamine receptor was tested by the method described in Raisman et al. Eur. J. Pharmacol 113: (1985), pp. 467-468, which utilizeds membranes isolated from the striatum of bovine brain. […] Thus, the 1C50 value for the compound of Example 2 is >100,000 at the D-1 receptor.

[6] = bovine caudate nuclei, [3H]-SCH23390, 15 minutes at 37° C., read-out: Ki D1
[7] = rat cerebral cortex, [3H]-Para aminoclonidine, 30 minutes at room temperature, read-out: Ki α2

T2 sequence (P20288 whole entry): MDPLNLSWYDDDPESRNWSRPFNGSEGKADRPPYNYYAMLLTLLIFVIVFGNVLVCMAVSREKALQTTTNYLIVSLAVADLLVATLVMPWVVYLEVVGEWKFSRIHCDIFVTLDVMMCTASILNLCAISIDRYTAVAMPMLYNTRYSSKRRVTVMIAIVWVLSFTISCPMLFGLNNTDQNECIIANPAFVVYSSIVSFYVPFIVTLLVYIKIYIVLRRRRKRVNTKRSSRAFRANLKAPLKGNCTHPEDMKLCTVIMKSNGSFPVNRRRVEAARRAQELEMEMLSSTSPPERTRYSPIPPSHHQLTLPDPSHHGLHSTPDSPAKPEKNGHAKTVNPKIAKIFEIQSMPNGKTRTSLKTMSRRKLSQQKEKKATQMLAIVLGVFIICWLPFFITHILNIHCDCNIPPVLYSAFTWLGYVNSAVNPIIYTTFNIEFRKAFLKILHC
T4 sequence (P20288 whole entry): as above
T1 sequence (Q95136 whole entry): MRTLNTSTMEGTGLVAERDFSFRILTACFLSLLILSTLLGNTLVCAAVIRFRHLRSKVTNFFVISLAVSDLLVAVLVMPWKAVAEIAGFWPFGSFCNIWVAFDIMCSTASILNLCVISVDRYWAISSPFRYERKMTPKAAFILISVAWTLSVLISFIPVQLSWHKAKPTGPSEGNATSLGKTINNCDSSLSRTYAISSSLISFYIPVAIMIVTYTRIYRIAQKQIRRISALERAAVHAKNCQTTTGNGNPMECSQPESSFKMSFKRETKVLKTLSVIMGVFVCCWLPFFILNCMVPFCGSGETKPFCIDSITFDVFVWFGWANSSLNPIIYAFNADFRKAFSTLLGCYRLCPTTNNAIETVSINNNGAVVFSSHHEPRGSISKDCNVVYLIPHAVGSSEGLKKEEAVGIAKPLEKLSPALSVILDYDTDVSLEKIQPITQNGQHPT
T5 sequence (Q95136 whole entry): as above

Compound: CCCN1C[C@H](CSC)C[C@@H]2c3cccc4[nH]cc(c34)C[C@H]21 [pergolide]
- intraocular pressure (intraocular pressure [1]): lower the intraocular pressure of rabbits
- intraocular pressure (intraocular pressure [2]): lowered the intraocular pressure of monkeys

- Ki (D1 receptors; [6]): 1950 nM
- Ki (D2 receptors): 130 nM
- increase in selectivity for D2 receptors (D2 receptors): two-fold
Compound: CCCN(CCc1csc2ccccc12)C1CCc2c(O)cccc2C1 (centres unmarked)
- Ki (α2-adrenergic receptors; [7]): 250 nM

Compound: CN(C)CCc1ccc(O)c(O)c1 [N,N-dimethyl-dopamine]
- alteration of ocular function (ocular function): may alter ocular function

Compound: CC(C)C[C@H]1C(=O)N2CCC[C@H]2[C@]2(O)O[C@](NC(=O)[C@@H]3C=C4c5cccc6[nH]c(Br)c(c56)C[C@H]4N(C)C3)(C(C)C)C(=O)N12 [bromocriptine]
- intraocular pressure (intraocular pressure [1]): lower the intraocular pressure of rabbits
- intraocular pressure (intraocular pressure [3]): may lower intraocular pressure

Compound: CCCN(CCC)CCc1ccc(O)c(O)c1 [N,N-di-n-propyldopamine]
- alteration of ocular function (ocular function): may alter ocular function

Compound: CN1CCc2cccc3c2[C@H]1Cc1ccc(O)c(O)c1-3 [apomophine]
- binding at the D-1 and D-2 receptor (comparison substances) (D-2 dopamine receptor [4]): substantially equivalent binding at the D-1 and D-2 receptor

Compound: CN1C[C@H](CC#N)C[C@@H]2c3cccc4[nH]c(Cl)c(c34)C[C@H]21 [lergotrile]
- intraocular pressure (intraocular pressure [1]): lower the intraocular pressure of rabbits
- intraocular pressure (intraocular pressure [2]): lowered the intraocular pressure of monkeys

Compound: CNCCc1ccc(O)c(O)c1 [N-methyldopamine]
- alteration of ocular function (ocular function): may alter ocular function
- mechanism: aqueous humor formation (ocular function): suppressing aqueous humor formation

Compound: CCCN(CCc1cccs1)C1CCc2c(O)cccc2C1 (racemic) [2-(N-propyl-N-2-thienylethylamino)-5-hydroxytetralin]
- Kd (D-2 dopamine receptor [5]): 1.6 nM
- bmax (D-2 dopamine receptor [5]; tritium-containing racemic mixture, calf brain corpus striatum homogenates): 26.0 picomoles/gm

- IC50 (D-2 dopamine receptor [5]; D-2, calf brain corpus striatum homogenates, read-out: IC50 (concentration of drug required to inhibit the binding of labelled drug by 50 percent)): 0.56 nM
- IC50 (D-1 dopamine receptor; D-1, tritium labeled SCH 23390, read-out: 1C50 value at the D-1 receptor): > 100000 nM
- displacement of tritium labeled SCH 23390 (D-1 dopamine receptor; concentration range 10^-11 to 10^-4 moles): did not displace
Compound: CCCN(CCc1cc2ccccc2s1)C1CCc2c(O)cccc2C1 (centres unmarked) [Example 2, 2-(N-n-propyl-N-2-[2-benzothienyl]ethylamino)-5-hydroxytetralin]
- D-2 as opposed to D-1 binding selectivity (D-2 dopamine receptor [5]; comparison of D-2 and D-1 binding): extremely selective D-2 as opposed to D-1 binding

- Ki (D1 receptors; [6]): 6460 nM
- Ki (D2 receptors): 80 nM
- increase in selectivity for D2 receptors (D2 receptors): six and a half-fold
Compound: CCCN(CCc1ccc2ccccc2c1)C1CCc2c(O)cccc2C1 (centres unmarked)
- Ki (α2-adrenergic receptors; [7]): 2500 nM

Compound: NCCc1ccc(O)c(O)c1 [dopamine]
- binding at the D-1 and D-2 receptor (comparison substances) (D-2 dopamine receptor [4]): substantially equivalent binding at the D-1 and D-2 receptor

Compound: CCCN(CCc1cccs1)C1CCc2c(O)cccc2C1 (centres unmarked)
- Ki (D1 receptors): 1000 nM
- Ki (D2 receptors): 110 nM
- Ki (α2-adrenergic receptors): 190 nM
